{"source": "paper PMC10857906", "about": "“PROTAC-mediated NR4A1 degradation as a novel strategy for cancer immunotherapy” (The Journal of Experimental Medicine, 2024)", "type_in_all_cases": "cell-based", "key": {"NR4A2": {"molecular_target": "T1, NR4A2 (Homo sapiens, UniProt P43354)", "T1 construct": "endogenous in cells", "T1 sequence (P43354 whole entry)": "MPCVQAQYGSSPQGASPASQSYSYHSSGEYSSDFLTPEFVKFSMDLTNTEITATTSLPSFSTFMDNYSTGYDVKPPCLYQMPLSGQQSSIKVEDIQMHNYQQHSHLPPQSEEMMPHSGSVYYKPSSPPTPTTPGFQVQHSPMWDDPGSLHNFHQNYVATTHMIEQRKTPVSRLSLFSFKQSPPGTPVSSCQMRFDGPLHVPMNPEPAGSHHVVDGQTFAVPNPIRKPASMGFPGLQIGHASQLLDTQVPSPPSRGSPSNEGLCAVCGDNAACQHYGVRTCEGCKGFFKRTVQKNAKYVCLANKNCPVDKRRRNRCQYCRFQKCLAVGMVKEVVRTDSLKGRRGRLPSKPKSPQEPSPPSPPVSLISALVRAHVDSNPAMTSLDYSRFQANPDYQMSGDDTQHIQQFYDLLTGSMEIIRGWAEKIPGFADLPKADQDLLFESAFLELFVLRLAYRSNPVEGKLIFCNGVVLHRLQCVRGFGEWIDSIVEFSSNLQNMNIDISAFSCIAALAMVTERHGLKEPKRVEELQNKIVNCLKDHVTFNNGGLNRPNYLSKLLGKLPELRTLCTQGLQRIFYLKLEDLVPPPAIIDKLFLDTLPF", "assay": "NR4A2 protein level after treatment (immunoblotting)", "procedure": "Samples were lysed using radioimmunoprecipitation assay buffer (RIPA) lysis buffer (150 mM NaCl, 5 mM EDTA, 50 mM Tris pH 8.0, 0.5% sodium deoxycholate, 1% NP-40, 0.1% SDS) supplemented with 1 mM dithiothreitol and protease inhibitors. The lysates were separated by SDS-PAGE and analyzed using standard western blotting procedures ([Khan et al., 2019]). Antibodies: human NR4A1 (ab153914, 1:1,000; Abcam), mouse NR4A1 (14-5965-82, 1:1,000; Invitrogen), NR4A2 (AV38753, 1:1,000; Sigma-Aldrich), NR4A3 (TA804893, 1: 1,000; Thermo Fisher Scientific), VHL (68547, 1:1,000; Cell Signaling), β-actin (13E5, 1:5,000; Cell Signaling), β-tubulin (9F3, 1: 5,000; Cell Signaling), and GAPDH (D16H11, 1: 5,000; Cell Signaling) were employed for protein detection."}, "human CD8^+ Texh cells": {"test_system": "human CD8^+ Texh cells", "assay": "T cell exhaustion in vitro, human PBMC-derived T cells", "conditions": "500 nM, 48 h", "procedure": "We conducted experiments involving the isolations and treatments of CD8^+ T cells from both OT-1 mice (C57BL/6-Tg(TcraTcrb)1100Mjb/J; Jackson Laboratories) and T cells from human PBMCs. CD8^+ T cells were isolated from OT-1 mice using the EasySep Mouse CD8 T Cell Isolation Kit, followed by daily treatment with 10 ng/ml ovalbumin (257–264) (S7951-1MG; Sigma-Aldrich) for specified durations. After 3 days of ovalbumin treatment, OT-1 CD8^+ T cells were activated, and after 7 days of treatment, they reached a state of exhaustion. Human T cells were isolated from PBMCs using the EasySep Human CD3 Positive Selection Kit II (17851; STEMCELL) and cultured with Dynabeads (Cell/Dynabeads: 1:1, A56992; Thermo Fisher Scientific) for 3 days to induce activation and for 7 days to induce exhaustion. Both mouse and human T cells received a treatment of 500 nM NR-V04 2 days prior to harvesting. To characterize the T cell subtypes, we employed specific flow cytometry antibodies and conducted flow cytometry analysis.\nMouse tumors were excised and ∼200 mg of tumor tissue was enzymatically and mechanically digested using the mouse Tumor Dissociation Kit (Miltenyi Biotec) to obtain a single-cell suspension. […] Flow cytometry was performed on a three laser Cytek Aurora Cytometer (Cytek Biosciences) and analyzed using FlowJo software (BD Biosciences). […]"}, "NR4A1 and VHL": {"molecular_target": "NR4A1 and VHL (Homo sapiens, UniProt P22736+P40337)", "sequence (P22736 whole entry)": "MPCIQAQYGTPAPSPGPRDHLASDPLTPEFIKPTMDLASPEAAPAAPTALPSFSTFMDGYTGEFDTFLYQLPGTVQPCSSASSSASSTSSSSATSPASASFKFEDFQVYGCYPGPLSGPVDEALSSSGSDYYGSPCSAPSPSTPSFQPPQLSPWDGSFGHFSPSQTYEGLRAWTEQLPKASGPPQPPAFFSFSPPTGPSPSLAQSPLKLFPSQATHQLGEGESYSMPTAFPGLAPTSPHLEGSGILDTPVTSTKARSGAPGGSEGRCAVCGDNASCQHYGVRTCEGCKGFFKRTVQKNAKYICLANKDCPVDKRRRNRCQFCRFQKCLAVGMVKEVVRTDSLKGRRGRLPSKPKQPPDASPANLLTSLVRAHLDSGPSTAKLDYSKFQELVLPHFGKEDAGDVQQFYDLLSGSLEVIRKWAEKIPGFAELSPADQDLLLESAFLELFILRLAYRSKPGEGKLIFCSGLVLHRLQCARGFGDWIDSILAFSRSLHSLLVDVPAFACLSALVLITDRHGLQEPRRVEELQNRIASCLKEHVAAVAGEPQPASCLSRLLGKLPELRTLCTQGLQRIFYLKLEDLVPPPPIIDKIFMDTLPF", "sequence (P40337 whole entry)": "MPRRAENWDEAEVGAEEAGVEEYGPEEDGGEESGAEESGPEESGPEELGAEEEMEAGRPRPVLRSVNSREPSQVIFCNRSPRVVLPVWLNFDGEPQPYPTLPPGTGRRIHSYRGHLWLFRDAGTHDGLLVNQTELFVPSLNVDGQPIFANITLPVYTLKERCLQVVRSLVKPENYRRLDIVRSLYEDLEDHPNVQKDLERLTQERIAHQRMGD", "sequence (Q15369 whole entry partner)": "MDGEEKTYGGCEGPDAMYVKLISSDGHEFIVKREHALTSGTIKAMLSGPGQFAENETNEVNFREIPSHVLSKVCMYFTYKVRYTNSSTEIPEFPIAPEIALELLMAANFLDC", "sequence (Q15370 whole entry partner)": "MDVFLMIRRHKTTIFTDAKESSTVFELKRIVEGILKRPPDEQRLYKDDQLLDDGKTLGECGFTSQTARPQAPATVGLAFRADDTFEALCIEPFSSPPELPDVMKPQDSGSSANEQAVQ", "assay": "Proximity ligation assay (PLA) for the NR4A1-VHL ternary complex", "set-up": "endogenous in cells; host or cells: CHL-1 and A375 human melanoma cells", "conditions": "CHL-1 and A375 cells, 500 nM, 16 h, 0.5 μM MG132 pretreatment", "procedure": "5 × 10^4 CHL-1 and A375 cells were cultured in Nunc Lab-Tek Chamber Slide (177402; Thermo Fisher Scientific). The cells were treated with DMSO, 500 nM celastrol, and 500 nM NR-V04 for 16 h with MG132 inhibitor. The PLA was conducted with Duolink In Situ Red Starter Kit Mouse/Rabbit (DUO92101; Sigma-Aldrich) following the standard protocol. Additionally, a non-stain cell group was included as a negative control to account for background signal during PLA assay. The signal was detected using a confocal microscope (LSM 710; Zeiss). Primary antibody: NR4A1 (HPA059742, 2 μg/ml, isotype-rabbit; Sigma-Aldrich) and VHL (MA5-13940, 2 μg/ml, isotype-mouse; Thermo Fisher Scientific)."}}}
{"smiles": "CC1=C(O)C(=O)C=C2C1=CC=C1[C@@]2(C)CC[C@@]2(C)[C@@H]3C[C@](C)(C(=O)NCCOCCOCCOCCOCC(=O)N[C@H](C(=O)N4C[C@H](O)C[C@H]4C(=O)N[C@@H](C)c4ccc(-c5scnc5C)cc4)C(C)(C)C)CC[C@]3(C)CC[C@]12C", "note": "[NR-V04]", "values": [{"measurement": "NR4A2 protein level (selectivity in the NR4A family)", "setting": "NR4A2", "result": "sparing NR4A2 and NR4A3"}, {"measurement": "CD8^+ Texh cells (CD8^+CTLA-4^+Tim3^+)", "setting": "human CD8^+ Texh cells", "result": "significant reduction in CD8^+ Texh cells"}, {"measurement": "PLA signals (ternary complex formation NR4A1-VHL)", "setting": "NR4A1 and VHL", "result": "induced strong PLA signals"}]}
